Legend:
[1] = system: mice fed with HFD; test: HFD-fed mice, 8 weeks, gavage: serum/liver lipids, body weight, food intake; type: in vivo; conditions: for HDL chol. / LDL chol. / TG / Tot. chol.: Table 2, mice
Description: In the 8 week experiment, C57BL/6J male mice (21-22 g), after fasting, were fed a HFD as a model of hyperlipidemia for 8 weeks. During the 2 month experiments, mice fasted for one night before the experiment was changed from a standard diet (STD) to a HFD and then the mice were randomly divided into 5 groups, including 2 control and 3 treatment groups. Six mice were used in each group. […] Liver from the protection group supplemented with KMUP-1 HCl (1 mg/kg/day) were used to determine the HMG CoA reductase expression.
Within 2 months, the 3 day food intake average for each animal was measured. The weight gain and plasma lipid levels of each group were determined and compared to the non-treatment control group. Mouse blood was collected during the daytime by cardiac puncture followed by centrifugation at 90 g (Benchtop Centrifuge, U.S.A.) to separate the serum, and frozen at −80° C., for biochemical analysis using a Hitachi Clinical Analyzer 7070 (Hitachi High-Technologies Co. Tokyo, Japan). Agents used in the assays were Obtained from Merck & Co. (Kenilworth, N.J., U.S.A.). Triglyceride (TG), total cholesterol, HDL cholesterol and LDL cholesterol in mouse serum were measured by methods used in the clinic. To measure the hepatic TG, isolated liver were cut into small chips.

[2] = system: ROCKII; test: Table 4 ROCKII (% of control); type: cell-based; conditions: control group = 100 (%)
[3] = system: PDE-5A; test: Table 4 PDE-5A (% of control); type: cell-based; conditions: control group = 100 (%)
[4] = system: HMG CoA reductase; test: HMG CoA reductase expression in liver of HFD mice (8 weeks); type: in vivo; conditions: KMUP-1 HCl 2.5, 5 mg/kg, simvastatin 5 mg/kg
Description: In the 8 week experiment, C57BL/6J male mice (21-22 g), after fasting, were fed a HFD as a model of hyperlipidemia for 8 weeks. During the 2 month experiments, mice fasted for one night before the experiment was changed from a standard diet (STD) to a HFD and then the mice were randomly divided into 5 groups, including 2 control and 3 treatment groups. Six mice were used in each group. […]
The obtained protein extract was boiled to a ratio of 4:1 with a sample buffer (Tris 100 mM, pH 6.8, glycerol 20%, SDS 4% and bromophenol blue 0.2%). Electrophoresis was performed using 10% SDS-polyacrylamide gel (1 hour, 100 V, 40 mA, 20 μg protein per lane).
The blot was then incubated with anti-mouse or anti-goat IgG linked to alkaline phosphatase (1:1000) for 1 hour.

[5] = system: LDLRs; test: IHC staining of LDLRs in liver; type: in vivo, mice; conditions: drinking KMUP-1 HCl; HFD; protection and treatment groups
Description: Liver tissues were fixed in 10% buffered formalin for 24 hours and then embedded in paraffin. The paraffin-embedded liver tissue sections (4 μm thick) were first heat immobilised and deparaffinised using xylene and then rehydrated in a graded series of ethanol, followed by a final wash in distilled water. Finally, tissue sections were stained with PAS and Mayer's hematoxylin solution.
For IHC of hepatic LDLRs in the animals that drink the KMUP-1 HCl (2.5 mg/200 mL for 1-14 weeks or 8-14 weeks), antigen retrieval of de-paraffinated sections was performed in Dako target retrieval solution, pH 9.0, in a vegetable steamer followed by the quenching of endogenous peroxidase activity with 3.0% H2O2 in methanol. Sections were then incubated with specific primary antibodies overnight at 4° C. in a humidified chamber. The sections were then examined using a DAKO REAL EnVision™ Detection System kit (DAKO, Carpinteria, Calif., U.S.A.) and counterstained with hematoxylin. Images were obtained through a Nikon Eclipse TE200-S microscope.

[6] = system: mice fed a HFD; test: HFD-fed mice, 14-week experiment: body weight, liver morphology, H&E, oil globulets; type: in vivo
Description: In the 14-week experiment, mice were fed a HFD from week 1 to week 14. During the 3 month experiments, KMUP-1 HCl (2.5 mg) was added to 200 ml tap water and) and drink for 14 weeks or for the last 6 weeks on mice or obese mice fed HFD, separately. 5 mice had free access to drinking water from week 1 to week 14 (protective group) or from week 8 to week 14 (treatment group). Tap water was used to normalize mineral nutrition (Scheme A).
The diameter of the white bar in the photograph was standardized at 100 μM for measuring the specific diameter of oil globulets in a whole liver slice, observed by microscope, with the aid of Powerpoint PC computer software (Microsoft®, USA) and printed out by a Hewlett-Packard® printer (USA). An increase in oil globulet diameter and cell number indicated increasing liver steatosis, i.e. steaotohepatitis. In contrast, decrease in diameter and the number of fat cells indicated the inhibition of steaotohepatitis. […] Hematoxylin-eosin (H&E) and […] staining of liver were used to assess oil globulet numbers under a microscope.
Mice liver and epididymal fat pads were cut and soaked in formalin, dehydrated through graded alcohols and embedded in paraffin. Specimens of liver tissues and epididymal fat pads fixed with formalin (4%) were embedded in paraffin for one hour at 4° C., cut into […] sections, and subjected to H&E staining before examination by light microscope. In heart tissues, the 4-μm-thick paraffin sections were cut from paraffin-embedded tissue blocks and de-paraffinized by immersion in xylene and rehydrated. The slices were then dyed with H&E. After gently rinsing with water, each slide was dehydrated through graded alcohols and finally soaked in xylene twice.
Hematoxylin-eosin (H&E) and IHC staining of liver were used to assess oil globulet numbers under a microscope. A 100 μM white bar was used to determine oil globule sizes in the liver. Oil globulets in a cell were counted from larger to smaller until size limitations were reached. Increases of oil globulet diameter and number indicated increasing liver steatosis. In contrast, a decrease in oil globulet diameters and numbers could indicate the inhibition of liver steatosis. Oil globulets were measured using a Nikon Eclipse TE200-S microscope, aided by Powerpoint computer software (Microsoft®) and printed by a HP® printer to measure the diameter and number of oil globulets on paper. Counting: of oil globules was performed from larger to smaller ones until the observation reached its limit.

[7] = system: eNOS; test: Table 4 eNOS (% of control); type: cell-based; conditions: control group = 100 (%)

For Cl.Cn1c(=O)c2c(ncn2CCN2CCN(c3ccccc3Cl)CC2)n(C)c1=O [KMUP-1 HCl, 7-[2-[4-(2-chlorophenyl)piperazinyl]ethyl]-1,3-dimethylxanthine HCl complex], the body-weight gain ([1]; KMUP-1 HCl 2.5, 5 mg/kg p.o., simvastatin 5 mg/kg p.o., compared to control HFD group, p<0.05) was “reduced”, the HDL chol. ([1]; dose 2.5 mg/kg) was 103.6 ± 4.2 mg/dL and the LDL chol. ([1]; dose 2.5 mg/kg) was 14.2 ± 1.4 mg/dL. For the same molecule, the TG ([1]; dose 2.5 mg/kg) was 74.5 ± 5.1 mg/dL, the Tot. chol. ([1]; dose 2.5 mg/kg) was 133 ± 5.1 mg/dL and the HDL chol. ([1]; dose 5 mg/kg) was 118.3 ± 5.7 mg/dL. For the same molecule, the LDL chol. ([1]; dose 5 mg/kg) was 14.2 ± 2.2 mg/dL, the TG ([1]; dose 5 mg/kg) was 72.67 ± 4.7 mg/dL and the Tot. chol. ([1]; dose 5 mg/kg) was 125.5 ± 9.8 mg/dL. For the same molecule, the ROCKII [2] was 42.5 ± 6.3%, the PDE-5A [3] was 64.5 ± 4.5% and the “HFD-induced downregulation of HMG-CoA reductase expression in liver” value [4] was “significantly reversed”. For the same molecule, the “hepatic LDLRs (IHC)” value [5] was “increased”, the body weight ([6]; drinking 2.5 mg/200 ml water, protection and treatment groups) was “decreased” and the “fatty liver (gross morphology)” value ([6]; protective group, more prominent than in the treatment group) was “markedly decreased”. It also gave an eNOS [7] of 155.16 ± 14.8%.

— patent publication US20150359798A1, “PIPERAZINYL DERIVATIVE REDUCES HIGH-FAT DIET-INDUCED ACCUMULATION OF FAT IN THE LIVERS, […]” (priority 2011, published 2015)
